Reference: PMC1968618, “Acetylsalicylic acid (ASA) protects the prostaglandin-cAMP-system of human hypernephroma cells against irradiation-induced alterations” (British Journal of Cancer, 1993)
Where “and” joins values, the source holds several entries; their conditions need not be identical. Equal values may be shown once. Read-outs that look alike come from different tables or passages of the source.

Experiments:
[1] = tested on: PG biosynthesis of human hypernephroma cells; assay: Conversion of exogenously added 14C-AA to its metabolites (radiothinlayer chromatography); format: cell-based; conditions: for 14C-AA conversion to 12-HETE, Table IV / 14C-AA conversion to PGD2, Table IV / 14C-AA conversion to PGE2, Table IV / 14C-AA conversion to PGF2alpha, Table IV / 14C-AA conversion to TXB2, Table IV / AA (%) remaining, Table IV: individual cell lines
[2] = tested on: human hypernephroma cells; assay: Cellular viability (phase-contrast microscopy and Trypan Blue exclusion); format: cell-based; conditions: ASA incubation for 24 h
[3] = tested on: PGE1-binding sites (3H-PGE1-receptors) on human hypernephroma cells; assay: Saturation binding of 3H-PGE1 to cultured hypernephroma cells (Scatchard analysis); conditions: for Bmax, 3H-PGE1 binding, Table II: individual cell lines; for Bmax (binding capacity), 3H-PGE1 binding / Kd: mean of cell lines; for Kd: read-out: Kd (dissociation constant), 3H-PGE1 binding
[4] = tested on: PG binding sites on human hypernephroma cells; assay: Time course of specific 3H-PG binding (association, dissociation); conditions: 3H-iloprost, 3H-PGE1 each 84 nM, 3H-PGE2 45 nM; stable for at least 80 min
[5] = tested on: PGE2-binding sites (3H-PGE2-receptors) on human hypernephroma cells; assay: Saturation binding of 3H-PGE2 to cultured hypernephroma cells (Scatchard analysis); conditions: for Bmax, 3H-PGE2 binding, Table III: individual cell lines; for Bmax (binding capacity), 3H-PGE2 binding / Kd: mean of cell lines; for Kd: read-out: Kd (dissociation constant), 3H-PGE2 binding
[6] = molecular target: T1, PGI2-binding sites (3H-iloprost receptors) on human hypernephroma cells (Homo sapiens, UniProt P43119); assay: Saturation binding of 3H-iloprost to cultured hypernephroma cells (Scatchard analysis); conditions: for Bmax (binding capacity), 3H-iloprost binding: mean of cell lines; for Bmax, 3H-iloprost binding, Table I: individual cell lines
T1 construct: endogenous in cells; host or cells: primary cultures of human renal cell carcinoma (hypernephroma) cells, one line per patient

[7] = ASA-treated group (group 2), patients 1,3,4,6,8,9,11 in order
[8] = ASA-treated group irradiated (group 4), patients 3,4,6,9,11 in order
[9] = ASA-treated group (group 2), ASA 0.5 mg 10-6 cells for 24 h
[10] = ASA-treated group irradiated (group 4)
[11] = ASA-treated group irradiated (group 4), listed as 3H-PGE1
[12] = control group (group 1), no ASA, no irradiation
[13] = control group (group 1), no ASA, no irradiation, listed as 3H-PGE1
[14] = control group irradiated (group 3), 60Co 1.0 Gy min-1 over 10 min, assay about 2 h after

T1 sequence (P43119 whole entry): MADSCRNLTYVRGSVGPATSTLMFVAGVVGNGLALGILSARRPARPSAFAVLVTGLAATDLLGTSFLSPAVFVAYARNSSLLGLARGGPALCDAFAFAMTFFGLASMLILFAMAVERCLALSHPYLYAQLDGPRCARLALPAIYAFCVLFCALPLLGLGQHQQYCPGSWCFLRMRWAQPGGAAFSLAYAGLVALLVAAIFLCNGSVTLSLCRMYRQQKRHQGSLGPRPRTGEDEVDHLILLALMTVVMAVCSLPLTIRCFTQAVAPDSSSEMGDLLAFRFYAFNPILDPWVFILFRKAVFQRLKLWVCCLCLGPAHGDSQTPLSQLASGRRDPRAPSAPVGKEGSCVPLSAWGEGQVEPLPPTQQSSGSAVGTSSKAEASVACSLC

## CC(=O)Oc1ccccc1C(=O)O [ASA, acetylsalicylic acid]
[1]; [7]
  14C-AA conversion to 12-HETE, Table IV: 6.9% and 4.2% and 7.3% and 5.5% and 5.3% and 4.9% and 8.8%
  14C-AA conversion to PGD2, Table IV: 1.3% and 0.9% and 0.2% and 0.5% and 0.4% and 0.6% and 0.8%
  14C-AA conversion to PGE2, Table IV: 1.8% (2×) and 1.1% and 2.2% and 0.7% and 1.5% and 1.3%
  14C-AA conversion to PGF2alpha, Table IV: 1.7% and 0.7% and 0.8% and 0.2% and 0.3% (2×) and 0.5%
  14C-AA conversion to TXB2, Table IV: 1.2% and 0.8% and 1.7% and 1.3% (2×) and 2.3% and 1.5%
  AA (%) remaining, Table IV: 66.5% and 78.2% and 72.9% and 78.5% (2×) and 82.8% and 81.0%
[1]; ASA-treated group (group 2), mean (control group […])
  14C-AA conversion to PGF2alpha: 0.6%
[1]; ASA-treated group (group 2), mean (control group 3.7)
  14C-AA conversion to 12-HETE: 6.1%
[1]; ASA-treated group (group 2), mean (control group 8.0)
  14C-AA conversion to TXB2: 1.4%
[1]; [8]
  14C-AA conversion to 12-HETE, Table IV: 4.9% and 5.1% (2×) and 4.8% (2×)
  14C-AA conversion to PGD2, Table IV: 0.3% and 0.9% and 0.8% and 0.5% and 0.4%
  14C-AA conversion to PGE2, Table IV: 0.8% and 1.6% and 1.9% and 1.1% and 1.8%
  14C-AA conversion to PGF2alpha, Table IV: 0.5% and 0.9% and 0.2% and 0.8% and 0.4%
  14C-AA conversion to TXB2, Table IV: 1.3% and 1.2% and 1.1% and 1.5% and 0.6%
  AA (%) remaining, Table IV: 82.9% and 74.3% and 81.2% and 73.7% and 79.4%
[1]; ASA-treated group irradiated (group 4), mean (control irradiated 2.7)
  14C-AA conversion to PGF2alpha: 0.6%
[1]; ASA-treated group irradiated (group 4), mean (control irradiated 3.0)
  14C-AA conversion to PGD2: 0.6%
[1]; ASA-treated group irradiated (group 4), mean (control irradiated 4.1)
  14C-AA conversion to 12-HETE: 4.9%
[1]; ASA-treated group irradiated (group 4), mean (control irradiated 7.4)
  14C-AA conversion to TXB2: 1.1%
[1]; ASA-treated group irradiated (group 4), mean (control irradiated 9.0)
  14C-AA conversion to PGE2: 1.4%
[2]
  cellular viability: unchanged

## CCCCC[C@H](O)/C=C/[C@H]1[C@H](O)CC(=O)[C@@H]1CCCCCCC(=O)O [PGE1]
[3]; ASA (group 2), patients 1,3,4,5,6,7,8,9,10,11 in order, listed as 3H-PGE1
  Bmax, 3H-PGE1 binding, Table II: 811 fmol mg-1 protein and 923 fmol mg-1 protein and 1076 fmol mg-1 protein and 1019 fmol mg-1 protein and 1367 fmol mg-1 protein and 897 fmol mg-1 protein and 1773 fmol mg-1 protein and 736 fmol mg-1 protein and 1064 fmol mg-1 protein and 1171 fmol mg-1 protein
[3]; [9]
  Bmax (binding capacity), 3H-PGE1 binding: 1084 +/- 303 fmol mg-1 protein
  Kd: 2.8 ± 1.3 nM
[3]; ASA-treated group (group 2), ASA 0.5 mg 10-6 cells for 24 h, listed as 3H-PGE1
  Bmax (binding capacity), 3H-PGE1 binding: 1084 fmol mg-1 protein
[3]; [10]
  Bmax (binding capacity), 3H-PGE1 binding: 699 +/- 240 fmol mg-1 protein
[3]; [11]
  Bmax (binding capacity), 3H-PGE1 binding: 699 fmol mg-1 protein
  Kd: 3 nM
[3]; control (group 1), patients 1,3,4,5,6,7,8,9,10,11 in order, listed as 3H-PGE1
  Bmax, 3H-PGE1 binding, Table II: 781 fmol mg-1 protein and 372 fmol mg-1 protein and 978 fmol mg-1 protein and 911 fmol mg-1 protein and 694 fmol mg-1 protein and 893 fmol mg-1 protein and 1041 fmol mg-1 protein and 643 fmol mg-1 protein and 555 fmol mg-1 protein and 685 fmol mg-1 protein
[3]; [12]
  Bmax (binding capacity), 3H-PGE1 binding: 755 +/- 206 fmol mg-1 protein
  Kd: 3.7 ± 2.7 nM
[3]; [13]
  Bmax (binding capacity), 3H-PGE1 binding: 755 fmol mg-1 protein
  Kd: ~4 nM
[3]; [14]
  Bmax (binding capacity), 3H-PGE1 binding: 266 +/- 153 fmol mg-1 protein
  Kd: 5 ± 5 nM
[3]; control group irradiated (group 3), 60Co 1.0 Gy min-1 over 10 min, assay about 2 h after, listed as 3H-PGE1
  Bmax (binding capacity), 3H-PGE1 binding: 266 fmol mg-1 protein
[3]; irradiation, ASA (group 4), patients 3,6,7,9,10,11 in order, listed as 3H-PGE1
  Bmax, 3H-PGE1 binding, Table II: 679 fmol mg-1 protein and 867 fmol mg-1 protein and 615 fmol mg-1 protein and 268 fmol mg-1 protein and 884 fmol mg-1 protein and 879 fmol mg-1 protein
[3]; irradiation, control (group 3), patients 3,6,7,9,10,11 in order, listed as 3H-PGE1
  Bmax, 3H-PGE1 binding, Table II: 267 fmol mg-1 protein and 504 fmol mg-1 protein and 301 fmol mg-1 protein and 137 fmol mg-1 protein and 319 fmol mg-1 protein and 68 fmol mg-1 protein
[4]
  time to reach binding equilibrium: ≤ 20 min

## CCCCC[C@H](O)/C=C/[C@H]1[C@H](O)CC(=O)[C@@H]1C/C=C\CCCC(=O)O [PGE2]
[5]; ASA (group 2), patients 1,3,4,5,6,8,9,10,11 in order, listed as 3H-PGE2
  Bmax, 3H-PGE2 binding, Table III: 650 fmol mg-1 protein and 162 fmol mg-1 protein and 858 fmol mg-1 protein and 780 fmol mg-1 protein and 1104 fmol mg-1 protein and 986 fmol mg-1 protein and 666 fmol mg-1 protein and 324 fmol mg-1 protein and 441 fmol mg-1 protein
[5]; [9]
  Bmax (binding capacity), 3H-PGE2 binding: 663 +/- 309 fmol mg-1 protein
  Kd: 2.2 ± 1.5 nM
[5]; ASA-treated group (group 2), ASA 0.5 mg 10-6 cells for 24 h, listed as 3H-PGE2
  Bmax (binding capacity), 3H-PGE2 binding: 663 fmol mg-1 protein
[5]; [10]
  Bmax (binding capacity), 3H-PGE2 binding: 287 fmol mg-1 protein
  Kd: 3.5 nM
[5]; control (group 1), patients 1,3,4,5,6,8,9,10,11 in order, listed as 3H-PGE2
  Bmax, 3H-PGE2 binding, Table III: 563 fmol mg-1 protein and 143 fmol mg-1 protein and 478 fmol mg-1 protein and 650 fmol mg-1 protein and 930 fmol mg-1 protein and 438 fmol mg-1 protein and 534 fmol mg-1 protein and 313 fmol mg-1 protein and 398 fmol mg-1 protein
[5]; [12]
  Bmax (binding capacity), 3H-PGE2 binding: 494 +/- 221 fmol mg-1 protein
  Kd: 4.2 ± 2.5 nM
[5]; control group (group 1), no ASA, no irradiation, listed as 3H-PGE2
  Bmax (binding capacity), 3H-PGE2 binding: 494 fmol mg-1 protein
[5]; [14]
  Bmax (binding capacity), 3H-PGE2 binding: 148 +/- 66 fmol mg-1 protein
  Kd: 4.7 ± 3.6 nM
[5]; control group irradiated (group 3), 60Co 1.0 Gy min-1 over 10 min, assay about 2 h after, listed as 3H-PGE2
  Bmax (binding capacity), 3H-PGE2 binding: 148 fmol mg-1 protein
[5]; irradiation, ASA (group 4), patients 3,6,8,9,10,11 in order, listed as 3H-PGE2
  Bmax, 3H-PGE2 binding, Table III: 181 fmol mg-1 protein and 336 fmol mg-1 protein and 338 fmol mg-1 protein and 466 fmol mg-1 protein and 232 fmol mg-1 protein and 170 fmol mg-1 protein
[5]; irradiation, control (group 3), patients 3,6,8,9,10,11 in order, listed as 3H-PGE2
  Bmax, 3H-PGE2 binding, Table III: 63 fmol mg-1 protein and 209 fmol mg-1 protein and 218 fmol mg-1 protein and 112 fmol mg-1 protein and 96 fmol mg-1 protein and 189 fmol mg-1 protein
[4]
  time to reach binding equilibrium: ≤ 30 min

## CCCCC[C@H](O)/C=C/[C@@H]1[C@H]2C/C(=C/CCCC(=O)O)O[C@H]2C[C@H]1O [PGI2]
[6]; [12]
  Bmax (binding capacity), 3H-iloprost binding: 693 +/- 164 fmol mg-1 protein
[6]; [14]
  Bmax (binding capacity), 3H-iloprost binding: 325 +/- 194 fmol mg-1 protein

## CC#CCC(C)[C@H](O)/C=C/[C@@H]1[C@H]2C/C(=C/CCCC(=O)O)C[C@H]2C[C@H]1O (stereo partly shown) [iloprost]
[6]; ASA (group 2), patients 1,2,3,4,5,6,7,8,9,10,11 in order, listed as 3H-iloprost
  Bmax, 3H-iloprost binding, Table I: 813 fmol mg-1 protein and 855 fmol mg-1 protein and 987 fmol mg-1 protein and 960 fmol mg-1 protein and 916 fmol mg-1 protein and 1047 fmol mg-1 protein and 2024 fmol mg-1 protein and 1301 fmol mg-1 protein and 442 fmol mg-1 protein and 1023 fmol mg-1 protein and 861 fmol mg-1 protein
[6]; [9]
  Bmax (binding capacity), 3H-iloprost binding: 1021 fmol mg-1 protein
[6]; [10]
  Bmax (binding capacity), 3H-iloprost binding: 766 +/- 452 fmol mg-1 protein
[6]; ASA-treated group irradiated (group 4), listed as 3H-iloprost
  Bmax (binding capacity), 3H-iloprost binding: 766 fmol mg-1 protein
[6]; control (group 1), patients 1,2,3,4,5,6,7,8,9,10,11 in order, listed as 3H-iloprost
  Bmax, 3H-iloprost binding, Table I: 741 fmol mg-1 protein and 635 fmol mg-1 protein and 876 fmol mg-1 protein and 732 fmol mg-1 protein and 808 fmol mg-1 protein and 806 fmol mg-1 protein and 649 fmol mg-1 protein and 407 fmol mg-1 protein and 382 fmol mg-1 protein and 829 fmol mg-1 protein and 756 fmol mg-1 protein
[6]; [12]
  Bmax (binding capacity), 3H-iloprost binding: 693 fmol mg-1 protein
[6]; [14]
  Bmax (binding capacity), 3H-iloprost binding: 325 fmol mg-1 protein
[6]; irradiation, ASA (group 4), patients 3,4,6,7,9,10,11 in order, listed as 3H-iloprost
  Bmax, 3H-iloprost binding, Table I: 489 fmol mg-1 protein and 354 fmol mg-1 protein and 867 fmol mg-1 protein and 1551 fmol mg-1 protein and 364 fmol mg-1 protein and 1162 fmol mg-1 protein and 576 fmol mg-1 protein
[6]; irradiation, control (group 3), patients 3,4,6,7,9,10,11 in order, listed as 3H-iloprost
  Bmax, 3H-iloprost binding, Table I: 332 fmol mg-1 protein and 287 fmol mg-1 protein and 432 fmol mg-1 protein and 699 fmol mg-1 protein and 204 fmol mg-1 protein and 203 fmol mg-1 protein and 118 fmol mg-1 protein
[4]
  time to reach binding equilibrium: ≤ 20 min
